Source: patent US20220313777A1, “INHALED DELIVERY OF PEPTIDE MIMICS OF CXCL10 FOR TARGETED ANTI-FIBROTIC THERAPY” (University of Pittsburgh - Of the Commonwealth System of …, priority 2019, published 2022)

How the values were obtained:
[1] = tested on: primary lung fibroblasts from scleroderma patients; assay: RT-qPCR of pro-fibrotic mRNAs in TGF-β-treated primary lung fibroblasts; assay type: cell-based, human; conditions: peptide 10 ng/mL plus TGF-β 10 ng/mL, 24 hours, delta-delta Ct, GAPDH housekeeping
Procedure: Primary lung fibroblasts from scleroderma patients were treated with TGF-β alone, or with IP-10-1 (SEQ ID NO: 2; FIGS. 1A-1C), IP-10-2 (SEQ ID NO: 3; FIGS. 1D-1F), or IP-10-3 (SEQ ID NO: 4; FIGS. 1G-1I) peptide (10 ng/mL) in the presence or absence of TGF-β (10 ng/mL) for 24 hours and then analyzed by RT-qPCR for the fibrotic ECM markers tenascin C (FIGS. 1A, 1D, 1G), collagen 1 (FIGS. 1B, 1E, 1H) and fibronectin (FIGS. 1C, […], 1I). Treatment with TGF-β alone induced expression of mRNAs for tenascin C (TNC), collagen 1 (COL1A1), and fibronectin (FN1) in primary lung fibroblasts. When cells were treated with an IP-10 peptide in combination with TGF-β, the IP-10 peptides reduced or prevented induction in mRNA expression of TNC, COL1A1, and FN1.
Primary lung fibroblasts from scleroderma patients were plated in 6-well plates in complete medium and incubated overnight. The next day, the medium was changed to quiescent medium and the cells were incubated in this medium for 24 hours. The following day, cells were left untreated, treated with 10 ng/mL of IP-10-1 (SEQ ID NO: 2), IP-10-2 (SEQ ID NO: 3) or IP-10-3 (SEQ ID NO: 4) peptide, treated with 10 ng/mL TGF-β, or treated with the combination of peptide and TGF-β for 24 hours. Total RNA was extracted using the Qiagen miRNeasy kit (Qiagen) and treated with DNase1, according to the manufacturer's instructions. RNA was then quantified and converted to cDNA using the Clontech RNA to cDNA EcoDry Double Primed Premix (Takara). qPCR was performed using PowerUp Sybr Green (Invitrogen) on an Applied Biosystems Quant Studio 3 instrument. Primers were from IDT and were designed using IDT Primer Quest and NCBI Primer Blast tools. The delta-delta Ct method was used to determine relative expression of the pro-fibrotic mRNAs for tenascin C (TNC), collagen 1 (COL1A1), and fibronectin (FN1). GAPDH was used as a housekeeping gene.

angiogenesis = conditions: earlier work, not tested in anti-fibrotic applications; cited from earlier work
CXCR3B isoform = biological target: T1, CXCR3B isoform (Homo sapiens, UniProt P49682); conditions: described in WO 2013/032853 and WO 2015/112505; cited from earlier work
T1 construct: host or cells: dermal endothelial cells (as described in the cited PCT publications)
T1 sequence (P49682 1-415 isoform P49682-2): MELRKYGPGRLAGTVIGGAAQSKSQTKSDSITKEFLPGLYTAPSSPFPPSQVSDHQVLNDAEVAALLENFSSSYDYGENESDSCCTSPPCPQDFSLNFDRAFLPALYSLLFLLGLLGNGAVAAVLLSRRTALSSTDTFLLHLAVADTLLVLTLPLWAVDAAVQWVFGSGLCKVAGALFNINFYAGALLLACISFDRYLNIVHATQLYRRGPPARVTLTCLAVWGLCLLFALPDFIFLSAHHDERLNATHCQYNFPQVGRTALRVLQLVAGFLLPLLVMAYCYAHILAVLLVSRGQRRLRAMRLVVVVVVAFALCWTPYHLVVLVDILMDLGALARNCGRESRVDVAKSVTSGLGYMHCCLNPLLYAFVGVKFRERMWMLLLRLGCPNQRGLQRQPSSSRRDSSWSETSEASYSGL

Row | Sequence | expression of collagen 1 (COL1A1) mRNA relative to treatment with TGF-β alone [1] | expression of fibronectin (FN1) mRNA relative to treatment with TGF-β alone [1] | expression of tenascin C (TNC) mRNA relative to treatment with TGF-β alone [1] | inhibition of angiogenesis (angiogenesis) | activation of the CXCR3B isoform (CXCR3B isoform)
1 | FAKAIKNFAKAVAKFA [IP-10-3, CXCL10 (IP-10) peptide variant] | significantly reduced or prevented | significantly reduced or prevented | significantly reduced or prevented | – | –
2 | PESKAIKNLLKAVSKEMSKRSP [IP-10p, CXCL10 peptide consisting of the α-helical domain (residues 77-98 of human CXCL10)] | – | – | – | able to inhibit angiogenesis | activates the CXCR3B isoform
3 | PESKVIKNLLKVASKERSKRSP [IP-10-1, CXCL10 (IP-10) peptide variant] | significantly reduced or prevented | significantly reduced or prevented | significantly reduced or prevented | – | –
4 | PESRVIKNLLRVVSKEKSRRSP [IP-10-2, CXCL10 (IP-10) peptide variant] | significantly reduced or prevented | significantly reduced or prevented | significantly reduced or prevented | – | –
